Our source for the GI50 and TGI values is PubChem BioAssay (NCI).

Holding throughout (test): DTP human tumour cell line panel, 48 h
Experiment [1] deals with CCRF-CEM leukemia.
For experiment [2], the system named is IGROV1 ovarian.
In experiment [3] the test system is SF-295 CNS.
Experiment [4] deals with COLO 205 colon.
In experiment [5] the test system is A549 NSCLC.
For experiment [6], the system named is SN12C renal.
Experiment [7] has as its system MDA-MB-435.
In experiment [8] the test system is UACC-257 melanoma.
The test system of experiment [9] is NCI-H23 lung.
The subject of experiment [10] is SF-539 CNS.

Where “and” joins values, the source holds several entries; their conditions need not be identical. Equal values may be shown once.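 Tested at 5 concentrations; 48 h exposure; 96-well plates; endpoints linearly interpolated, else capped at highest concentration. At the GI50, growth is halved. TGI: total growth inhibition.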 Bounds are passed on as bounds.

As usually defined, the GI50 is the concentration at which growth is held to half of that of the control. Usually TGI stands for the concentration giving total growth inhibition. `Cc1nn2c(-c3nc4cc(Cl)c(Cl)cc4[nH]3)c(-c3ccc(F)cc3)nc2s1`: the GI50 in [1] was over 100 µM; in experiment [2], 5.42 µM; in experiment [3], 4.92 µM; in experiment [4], over 70.2 µM; in experiment [5] it was 1.92 µM; in experiment [6], 7.92 µM. The GI50 is 4.65 µM in experiment [7], 8.16 µM in experiment [8], 21.7 µM in experiment [9] and 2.53 µM in experiment [10]. Also, the TGI in experiment [1] was over 100 µM; in [2], over 50.6 µM; in experiment [3], over 42.8 µM; in experiment [4], over 100 µM; in experiment [5], over 42.3 µM; in experiment [6], over 100 µM. Moreover, the TGI in experiment [7] was over 100 µM; in [8], over 100 µM; in [9], over 61.4 µM; in experiment [10], 11.1 µM.

With `NCC(Cc1ccccc1)P(=O)(O)O` (centres undefined), the total growth inhibition concentration (TGI) in experiment [1], in [2], in experiment [3], in [4], in experiment [5] and in [6] was over 100 µM throughout. In addition, the TGI in experiment [7], in [8], in experiment [9] and in experiment [10] was over 100 µM in each case.

For `N#Cc1cccc(C2C3=C(COC3=O)N(CCO)c3cc4c(cc32)CCC4)c1` (centres undefined), the GI50 in [1] is 0.187 µM; in [2] it was 0.172 µM; in [3] it was 0.0716 µM; in [4] it was 0.146 µM; in experiment [5], 0.23 µM; in [6] it was 0.261 µM. The GI50 in experiment [7] is 0.0171 µM; in experiment [8], over 50 µM; in [9], 0.302 µM; in experiment [10], 0.112 µM. Besides, the TGI in experiment [1] is over 50 µM; in [2], over 43.8 µM; in experiment [3], over 50 µM; in experiment [4] it was 1.28 µM; in experiment [5], over 50 µM; in experiment [6] it was over 50 µM. Further, the TGI is 0.0662 µM in experiment [7], over 50 µM in experiment [8], over 50 µM in experiment [9] and 0.356 µM in experiment [10].

Take `Oc1c(I)cc(Cl)c2cccnc12`: the GI50 is 2.81 µM and 1.89 µM in experiment [1]; 3.91 µM and 13 µM in [2]; 2.62 µM and 22.2 µM in experiment [3]; 5.21 µM and 5.72 µM in experiment [4]; 3.96 µM and 8.89 µM in experiment [5]; 3.27 µM and 4.82 µM in [6]. In addition, the GI50 in [7] is 4.2 µM and 32.8 µM; in [8], 3.61 µM and 24.5 µM; in experiment [9] it was 3.74 µM and 8.04 µM; in [10], 3.31 µM and 24.3 µM. Besides, the TGI in experiment [1] was 9.89 µM and 4.71 µM; in [2] it was 24.2 µM and 36.5 µM; in experiment [4], 21.8 µM and 75.4 µM; in [5], over 100 µM; in experiment [6], > 100 µM and 26.3 µM; in experiment [7] it was over 100 µM. Further, the TGI in [8] was 83.5 µM and 71.5 µM; in experiment [9] it was 31.4 µM and > 100 µM; in experiment [10], 13.7 µM and 52.6 µM.

`CC1(C)N=C(N)N=C(N)N1c1ccc(OCCCCNC(=O)Nc2cccc(S(=O)(=O)F)c2)c(Cl)c1`: the GI50 is 0.95 µM in experiment [1]; 0.581 µM in experiment [2]; 5.59 µM in [3]; 3.78 µM in experiment [4]; 2.27 µM in [5]; 0.577 µM in [6]. Moreover, the GI50 in experiment [7] is 0.642 µM; in experiment [8], 3.73 µM; in [10] it was 1.27 µM. For the same compound, the TGI in experiment [1], in experiment [2], in experiment [3], in experiment [4], in [5] and in experiment [6] was over 100 µM each time. The total growth inhibition concentration (TGI) was over 100 µM in experiment [7], over 100 µM in experiment [8] and 8.5 µM in [10].

For `COc1cc(OC)c(/C=C/C(=O)c2c(N)cc(OC)cc2OC)c(OC)c1`, the GI50 in experiment [1] was 1.26 µM; in [2] it was 0.797 µM; in experiment [3] it was 0.397 µM; in experiment [4], 2.94 µM; in [5], 0.733 µM; in [6] it was 0.719 µM. Besides, the concentration for 50% growth inhibition (GI50) in [7] was 0.0776 µM; in [9], 0.826 µM; in experiment [10], 0.365 µM. Moreover, the TGI in experiment [1] was over 100 µM; in experiment [2] it was over 100 µM; in [4] it was over 45.1 µM; in [5], over 100 µM; in experiment [6] it was over 100 µM; in [7] it was 0.514 µM. In addition, the TGI in experiment [9] was over 100 µM; in experiment [10] it was over 25.2 µM.
